From US20170266186A1, “USE OF INHIBITORS OF BRUTON'S TYROSINE KINASE (BTK)” (Pharmacyclics LLC, priority 2011, published 2017)

Assays:
cell lines = assay: combination of PCI-32765 with other drugs in cell lines; assay type: cell-based
DLBCL xenograft = assay: combination drug testing in a DLBCL xenograft; assay type: in vivo; details: initial experiment in a DLBCL xenograft

Structure (SMILES)	interaction with PCI-32765 in combination (cell lines)	interaction with PCI-32765 in combination (DLBCL xenograft)
CN(C)Cc1c(C(=O)NCCOc2ccc(C(=O)NO)cc2)oc2ccccc12 [3-((dimethylamino)methyl)-N-(2-(4-(hydroxycarbamoyl)phenoxy)ethyl)benzofuran-2-carboxamide]	weak synergy	
COc1cc(Nc2ncc(F)c(Nc3ccc4c(n3)NC(=O)C(C)(C)O4)n2)cc(OC)c1OC [Compound R-406]	weak synergy	
Cn1c(CCCC(=O)O)nc2cc(N(CCCl)CCCl)ccc21 [bendamustine]	weak synergy	
CC(C)C[C@H](NC(=O)[C@H](Cc1ccccc1)NC(=O)c1cnccn1)B(O)O [bortezomib]	weak synergy	greater than additivity
N.N.O=C([O-])C1(C(=O)[O-])CCC1.[Pt+2] [carboplatin]	additivity	
COc1cccc2c1C(=O)c1c(O)c3c(c(O)c1C2=O)C[C@@](O)(C(=O)CO)C[C@@H]3O[C@H]1C[C@H](N)[C@H](O)[C@H](C)O1 [doxorubicin]	additivity	
Nc1ccn([C@@H]2O[C@H](CO)[C@@H](O)C2(F)F)c(=O)n1 [gemcitabine]	weak synergy	
Nc1cccc2c1CN(C1CCC(=O)NC1=O)C2=O (stereo not shown) [lenalidomide]	weak synergy	
CNC(=O)c1cc(Oc2ccc(NC(=O)Nc3ccc(Cl)c(C(F)(F)F)c3)cc2)ccn1 [sorafenib]	weak synergy	
CC(=O)O[C@H]1C(=O)[C@@]2(C)[C@H]([C@H](OC(=O)c3ccccc3)[C@]3(O)C[C@H](OC(=O)[C@H](O)[C@@H](NC(=O)c4ccccc4)c4ccccc4)C(C)=C1C3(C)C)[C@]1(OC(C)=O)CO[C@@H]1C[C@@H]2O [taxol]	additivity	
CO[C@H]1C[C@@H]2CC[C@@H](C)[C@@](O)(O2)C(=O)C(=O)N2CCCC[C@H]2C(=O)O[C@H]([C@H](C)C[C@@H]2CC[C@@H](OC(=O)C(C)(CO)CO)[C@H](OC)C2)CC(=O)[C@H](C)/C=C(\C)[C@@H](O)[C@@H](OC)C(=O)[C@H](C)C[C@H](C)/C=C/C=C/C=C/1C [temsirolimus]	additivity	
CC[C@]1(O)C[C@H]2CN(CCc3c([nH]c4ccccc34)[C@@](C(=O)OC)(c3cc4c(cc3OC)N(C=O)[C@H]3[C@@](O)(C(=O)OC)[C@H](OC(C)=O)[C@]5(CC)C=CCN6CC[C@]43[C@@H]65)C2)C1 [vincristine]	additivity	
